# Experimental data as given in US10774071B2, “PD-1/PD-L1 inhibitors” (Gilead Sciences, Inc., priority 2018, dated 2020).
# Read-outs that look alike come from different tables or passages of the source.
# Tests used:
# PD-1/PD-L1 = PD-1/PD-L1 (Homo sapiens (Human), UniProt Q9NZQ7); test: PD-1/PD-L1 biochemical protein-protein interaction assay (ALPHA); type: binding; settings: 0.3 nM His tagged PD-L1, 2.5 nM biotinylated Fc-PD-1, readings of 0.064 nM are equal to or less than 0.064 nM, read-out: IC50 PD-L1-PD1
# Sequence of PD-1/PD-L1 (Q9NZQ7 19-238): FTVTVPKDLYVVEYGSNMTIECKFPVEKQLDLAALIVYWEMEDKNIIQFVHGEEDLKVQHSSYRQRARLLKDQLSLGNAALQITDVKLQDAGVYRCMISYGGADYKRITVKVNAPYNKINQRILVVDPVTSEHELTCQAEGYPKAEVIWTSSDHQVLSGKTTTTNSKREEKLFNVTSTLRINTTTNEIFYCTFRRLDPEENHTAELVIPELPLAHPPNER
# Procedure: Compounds were tested in biochemical protein-protein interaction assays to determine if they can specifically block the interaction between the extracellular domains of PD-1/PD-L1 or CTLA/CD80. Binding of the protein pairs is measured using a bead based Amplified Luminescent Proximity Homogeneous Assay (ALPHA) platform. […] Final protein concentration in the assays were 0.3 nM (His tagged PD-L1), 2.5 nM (biotinylated Fc-PD-1), 1 nM (His tagged CTLA4) and 1 nM (biotinylated CD80).
# PD-L1 = PD-L1 (Homo sapiens (Human), UniProt Q9NZQ7); test: PD-L1/PD-L1 dimerization biochemical protein-protein interaction assay (ALPHA); type: binding; settings: read-out: AC50 PDL1 Dimer 1 nM
# Sequence of PD-L1 (Q9NZQ7 19-238): as above
# Sequence of PD-L1 (Q9NZQ7 19-238): as above
# [1] = 0.5 nM His tagged PD-L1 and 0.5 nM FLAG tagged PD-L1, Table 4A
# [2] = 0.5 nM His tagged PD-L1 and 0.5 nM FLAG tagged PD-L1, Table 4B
smiles,measurement,setting,value
COc1nc(-c2cccc(-c3cccc4c3CC[C@@H]4Nc3nc(OC)c(CN4CC5(C(=O)O)CCC4CC5)cc3C(F)(F)F)c2Cl)ccc1CNC[C@@H]1CCC(=O)N1 [A-1],IC50,PD-1/PD-L1,≤ 0.064 nM
same,AC50,PD-L1; [1],13.2 nM
"COc1nc(-c2cccc(-c3cccc4c3CC[C@@H]4Nc3nc(OC)c(CN4CC[C@@](C)(C(=O)O)C4)cc3C(F)(F)F)c2Cl)ccc1CNC[C@@H]1CCC(=O)N1 [A-2, (R)-1-((6-(((S)-4-(2-chloro-3-(6-methoxy-5-(((((S)-5-oxopyrrolidin-2-yl)methyl)amino)methyl)pyridin-2-yl)phenyl)-2,3-dihydro-1H-inden-1-yl)amino)-2-methoxy-5-(trifluoromethyl)pyridin-3-yl)methyl)-3-methylpyrrolidine-3-carboxylic acid]",IC50,PD-1/PD-L1,≤ 0.064 nM
same,AC50,PD-L1; [1],13.5 nM
COc1nc(-c2cccc(-c3cccc4c3CC[C@@H]4Nc3nc(OC)c(CN4CC[C@H](C(=O)O)C4)cc3C(F)(F)F)c2Cl)ccc1CNC[C@@H]1CCC(=O)N1 [A-3],IC50,PD-1/PD-L1,≤ 0.064 nM
same,AC50,PD-L1; [1],13.9 nM
COc1nc(-c2cccc(-c3cccc4c3CC[C@@H]4Nc3nc(OC)c(CN4CC[C@@H](C(=O)O)C4)cc3C(F)(F)F)c2Cl)ccc1CNC[C@@H]1CCC(=O)N1 [A-4],IC50,PD-1/PD-L1,≤ 0.064 nM
same,AC50,PD-L1; [1],14.3 nM
COc1nc(-c2cccc(-c3cccc4c3CC[C@@H]4Nc3nc(OC)c(CN4CC5(C(=O)O)CCC4CC5)cc3Cl)c2Cl)ccc1CNC[C@@H]1CCC(=O)N1 [A-5],IC50,PD-1/PD-L1,≤ 0.064 nM
same,AC50,PD-L1; [1],113 nM
COc1nc(-c2cccc(-c3cccc4c3CC[C@@H]4Nc3nc(OC)c(CN4CC(C)(O)C4)cc3Cl)c2Cl)ccc1CNC[C@@H]1CCC(=O)N1 [A-6],IC50,PD-1/PD-L1,0.67 nM
same,AC50,PD-L1; [1],188 nM
COc1nc(-c2cccc(-c3cccc4c3CC[C@@H]4Nc3nc(OC)c(CN4CC5(CCC(=O)N5)C4)cc3Cl)c2Cl)ccc1CNC[C@@H]1CCC(=O)N1 [A-7],IC50,PD-1/PD-L1,1.18 nM
same,AC50,PD-L1; [1],180 nM
COc1nc(-c2cccc(-c3cccc4c3CC[C@@H]4Nc3nc(OC)c(CN4CC[C@@H](C(=O)O)C4)cc3Cl)c2Cl)ccc1CNC[C@@H]1CCC(=O)N1 [A-8],IC50,PD-1/PD-L1,≤ 0.064 nM
same,AC50,PD-L1; [1],79.7 nM
COc1nc(-c2cccc(-c3cccc4c3CC[C@@H]4Nc3nc(OC)c(CNC[C@@H]4CCC(=O)N4)cc3Cl)c2Cl)ccc1CNC[C@@H]1CCC(=O)N1 [A-9],IC50,PD-1/PD-L1,1.66 nM
same,AC50,PD-L1; [1],150 nM
COc1cc(N[C@H]2CCc3c(-c4cccc(-c5ccc(CNC[C@@H]6CCC(=O)N6)c(OC)n5)c4Cl)cccc32)c(C(F)(F)F)cc1CN1CC[C@H](C(=O)O)C1 [A-10],IC50,PD-1/PD-L1,≤ 0.064 nM
same,AC50,PD-L1; [1],16.7 nM
COc1cc(N[C@H]2CCc3c(-c4cccc(-c5ccc(CNC[C@@H]6CCC(=O)N6)c(OC)n5)c4Cl)cccc32)c(C(F)(F)F)cc1CN1CC[C@@H](C(=O)O)C1 [A-11],IC50,PD-1/PD-L1,≤ 0.064 nM
same,AC50,PD-L1; [1],34.8 nM
COc1cc(N[C@H]2CCc3c(-c4cccc(-c5ccc(CNC[C@@H]6CCC(=O)N6)c(OC)n5)c4Cl)cccc32)c(C(F)(F)F)cc1CN1CC2(C(=O)O)CCC1CC2 [A-12],IC50,PD-1/PD-L1,≤ 0.064 nM
same,AC50,PD-L1; [1],26.4 nM
COc1cc(N[C@H]2CCc3c(-c4cccc(-c5ccc(CNC[C@@H]6CCC(=O)N6)c(OC)n5)c4Cl)cccc32)c(Cl)cc1CN1CC2(C(=O)O)CCC1CC2 [A-13],IC50,PD-1/PD-L1,0.065 nM
same,AC50,PD-L1; [1],48.8 nM
COc1nc(-c2cccc(-c3cccc4c3CC[C@@H]4Nc3nc(OC)c(CNC4(C(=O)O)CC4)cc3C(F)(F)F)c2Cl)ccc1CN1CC2(CCC(=O)N2)C1 [A-23],IC50,PD-1/PD-L1,≤ 0.064 nM
COc1nc(-c2cccc(-c3cccc4c3CC[C@@H]4Oc3nc(OC)c(CNC4(C(=O)O)CCOCC4)cc3Cl)c2Cl)ccc1CNC[C@@H]1CCC(=O)N1 [B-15],AC50,PD-L1; [2],9.55 nM
COc1nc(-c2cccc(-c3cccc4c3CC[C@@H]4Oc3nc(OC)c(CN4CCC[C@@H]4C(=O)O)cc3Cl)c2Cl)ccc1CNC[C@@H]1CCC(=O)N1 [B-16],AC50,PD-L1; [2],24.5 nM
COc1nc(-c2cccc(-c3cccc4c3CC[C@@H]4Oc3nc(OC)c(CN4CCC[C@@]4(C)C(=O)O)cc3Cl)c2Cl)ccc1CNC[C@@H]1CCC(=O)N1 [B-17],AC50,PD-L1; [2],4.29 nM
COc1nc(-c2cccc(-c3cccc4c3CC[C@@H]4Oc3nc(OC)c(CN4CCC[C@H]4C(=O)O)cc3Cl)c2Cl)ccc1CNC[C@@H]1CCC(=O)N1 [B-18],AC50,PD-L1; [2],17.5 nM
COc1nc(-c2cccc(-c3cccc4c3CC[C@@H]4Oc3nc(OCc4cncc(Cl)c4)c(CNC4(C(=O)O)CC4)cc3C(F)(F)F)c2Cl)ccc1CNC[C@@H]1CCC(=O)N1 [B-29],AC50,PD-L1; [2],4.08 nM
COc1nc(-c2cccc(-c3cccc4c3CC[C@@H]4Oc3nc(OCc4cncc(F)c4)c(CN4CC5(C(=O)O)CCC4CC5)cc3Cl)c2Cl)ccc1CNC[C@@H]1CCC(=O)N1 [B-33],AC50,PD-L1; [2],14.7 nM
COc1nc(-c2cccc(-c3cccc4c3CC[C@@H]4Oc3nc(OC)c(CNC4(C(=O)O)CCC4)cc3Cl)c2Cl)ccc1CNC[C@@H]1CCC(=O)N1 [B-35],AC50,PD-L1; [2],9.06 nM
COc1nc(-c2cccc(-c3cccc4c3CC[C@@H]4Oc3nc(OC(F)F)c(CN4CC5(C(=O)O)CCC4CC5)cc3Cl)c2Cl)ccc1CNC[C@@H]1CCC(=O)N1 [B-40],AC50,PD-L1; [2],48.6 nM
CCOc1nc(O[C@H]2CCc3c(-c4cccc(-c5ccc(CNC[C@@H]6CCC(=O)N6)c(OC)n5)c4Cl)cccc32)c(Cl)cc1CN1CC2(C(=O)O)CCC1CC2 [B-46],AC50,PD-L1; [2],14.7 nM
CCOc1nc(O[C@H]2CCc3c(-c4cccc(-c5ccc(CNC[C@@H]6CCC(=O)N6)c(OC)n5)c4Cl)cccc32)c(Cl)cc1CN1CC[C@H](C(=O)O)C1 [B-47],AC50,PD-L1; [2],27.4 nM
COc1nc(-c2cccc(-c3cccc4c3CC[C@@H]4Oc3nc(OC)c(CN[C@@H]4CCC[C@@H]4C(=O)O)cc3Cl)c2Cl)ccc1CNC[C@@H]1CCC(=O)N1 [B-53],AC50,PD-L1; [2],31.1 nM
COc1nc(-c2cccc(-c3cccc4c3CC[C@@H]4Oc3nc(OC)c(CNC4(C(=O)O)CC4)cc3Cl)c2Cl)ccc1CNC[C@@H]1CCC(=O)N1 [B-54],AC50,PD-L1; [2],10.2 nM
COc1nc(-c2cccc(-c3cccc4c3CC[C@@H]4Oc3nc(OCC#N)c(CN4CC5(C(=O)O)CCC4CC5)cc3Cl)c2Cl)ccc1CNC[C@@H]1CCC(=O)N1 [B-55],AC50,PD-L1; [2],10.7 nM
COc1nc(-c2cccc(-c3cccc4c3CC[C@@H]4Oc3nc(OCc4cncc(C#N)c4)c(CN4CC[C@H](C(=O)O)C4)cc3Cl)c2Cl)ccc1CNC[C@@H]1CCC(=O)N1 [B-65],AC50,PD-L1; [2],15.3 nM
COc1nc(-c2cccc(-c3cccc4c3CC[C@@H]4Oc3nc(OCc4cncc(C#N)c4)c(CN4CC[C@@H](C(=O)O)C4)cc3Cl)c2Cl)ccc1CNC[C@@H]1CCC(=O)N1 [B-66],AC50,PD-L1; [2],38.1 nM
COc1nc(-c2cccc(-c3cccc4c3CC[C@@H]4Oc3nc(OCc4cncc(C#N)c4)c(CN4CC5(C(=O)O)CCC4CC5)cc3Cl)c2Cl)ccc1CNC[C@@H]1CCC(=O)N1 [B-67],AC50,PD-L1; [2],30.3 nM
COc1nc(-c2cccc(-c3cccc4c3CC[C@@H]4Oc3nc(OC)c(CN4CC(C(=O)NS(C)(=O)=O)C4)cc3Cl)c2Cl)ccc1CN1CC(C)(O)C1 [B-75],AC50,PD-L1; [2],93.8 nM
COc1nc(-c2cccc(-c3cccc4c3CC[C@@H]4Oc3nc(OC)c(CN4CC[C@@H](C(=O)NS(C)(=O)=O)C4)cc3Cl)c2Cl)ccc1CN1CC(C)(O)C1 [B-76],AC50,PD-L1; [2],83.2 nM
COc1nc(O[C@H]2CCc3c(-c4cccc(-c5cnc([C@@H](C)NC[C@H]6CCC(=O)N6)c(OC)n5)c4Cl)cccc32)c(Cl)cc1CN1CC[C@@H](C(=O)O)C1 [B-79],AC50,PD-L1; [2],70.8 nM
COc1nc(-c2cccc(-c3cccc4c3CC[C@@H]4Oc3nc(OC)c(CN4CC[C@H](C(=O)NS(C)(=O)=O)C4)cc3Cl)c2Cl)ccc1CNC[C@@H]1CCC(=O)N1 [B-84],AC50,PD-L1; [2],37.3 nM
COc1nc(-c2cccc(-c3cccc4c3CC[C@@H]4Oc3nc(OC)c(CN4CC(C(=O)O)C4)cc3Cl)c2Cl)ccc1CN1CC(C)(O)C1 [B-100],AC50,PD-L1; [2],103 nM
CCOC(=O)C1CN(Cc2cc(Cl)c(O[C@H]3CCc4c(-c5cccc(-c6ccc(CNC[C@@H]7CCC(=O)N7)c(OC)n6)c5Cl)cccc43)nc2OC)C1 [B-105],AC50,PD-L1; [2],783 nM
COC(=O)[C@@H]1CCN(Cc2cc(Cl)c(O[C@H]3CCc4c(-c5cccc(-c6ccc(CNC[C@@H]7CCC(=O)N7)c(OC)n6)c5Cl)cccc43)nc2OC)C1 [B-108],AC50,PD-L1; [2],696 nM
COc1nc(-c2cccc(-c3cccc4c3CC[C@@H]4Oc3nc(OC)c(CN4CCC[C@@H](C(=O)NS(C)(=O)=O)C4)cc3Cl)c2Cl)ccc1CNC[C@@H]1CCC(=O)N1 [B-109],AC50,PD-L1; [2],40.9 nM
COc1nc(-c2cccc(-c3cccc4c3CC[C@@H]4Oc3nc(OC)c(CN4CC(C(=O)NS(=O)(=O)C(F)F)C4)cc3Cl)c2Cl)ccc1CNC[C@@H]1CCC(=O)N1 [B-110],AC50,PD-L1; [2],97.1 nM
COc1nc(-c2cccc(-c3cccc4c3CC[C@@H]4Oc3nc(OC)c(CN4CC[C@@H](C(=O)NS(=O)(=O)C(F)F)C4)cc3Cl)c2Cl)ccc1CNC[C@@H]1CCC(=O)N1 [B-111],AC50,PD-L1; [2],139 nM
CCS(=O)(=O)NC(=O)[C@@H]1CCN(Cc2cc(Cl)c(O[C@H]3CCc4c(-c5cccc(-c6ccc(CNC[C@@H]7CCC(=O)N7)c(OC)n6)c5Cl)cccc43)nc2OC)C1 [B-112],AC50,PD-L1; [2],170 nM
COc1nc(-c2cccc(-c3cccc4c3CC[C@@H]4Oc3nc(OC)c(CN4CC[C@@H](C(=O)NS(C)(=O)=O)C4)cc3Cl)c2Cl)ccc1CNC[C@@H]1CCC(=O)N1 [B-113],AC50,PD-L1; [2],29.9 nM
